Experimental findings from patent US20240393292A1, “ALLERGY ANTIGEN AND EPITOPE THEREOF” (HOYU CO., LTD., priority 2019, published 2024) are described below.

This assay concerns IgE antibody present in the serum of a wheat-allergic patient. The assay is described as follows: Wheat epitope mapping (1): peptide array of overlapping 15-amino-acid peptides, chemiluminescence. To be noted: bound = chemiluminescence value minus N2nd value of 5 non-wheat-allergic subjects at least 35,000; serum of 49 patients. It is filed as binding, human. Here is the method:
Epitope mapping was carried out using a library of overlapping peptides (length: 15 amino acids) corresponding to the amino acid sequences identified as allergy components of wheat. Specifically, the library of overlapping peptides was prepared on the basis of the amino acid sequences of SEQ ID NOs: 2, 4, 6, 8, 10, 12, 14, 16, 18, 20, 22, 24, 26 and 28.
The peptides to be synthesized were shifted by 10 amino acids.
For preparation of peptide arrays, the Intavis CelluSpots™ technique was used. Specifically, the peptide arrays were prepared by the following procedure: (1) synthesizing peptides of interest on amino-modified cellulose disks using an automated chemical synthesis apparatus (Intavis MultiPep RS), (2) dissolving the amino-modified cellulose disks to obtain a cellulose-bound peptide solution, and (3) spotting the cellulose-bound peptides onto coated glass slides. The details of each procedure are as described below.
Peptide synthesis was carried out in incremental steps through 9-fluorenylmethoxycarbonyl (Fmoc) chemical reaction on amino-modified cellulose disks in 384-well synthesis plates. Specifically, amino acids in which a Fmoc group is bonded to an amino group were activated in a solution of N,N′-diisopropylcarbodiimide (DIC) and 1-hydroxybenzotriazole (HOBt) in dimethylformamide (DMF) and added dropwise to the cellulose disks so that the Fmoc group-bound amino acids were bound to the amino groups on the cellulose disks (coupling). Unreacted amino groups were capped with acetic anhydride and washed with DMF. Furthermore, the Fmoc groups were eliminated from the amino groups of the amino acids bound to the amino groups on the cellulose disks by treatment with piperidine and washing with DMF. The amino acids bound to the amino groups on the cellulose disks were repetitively subjected to the coupling, the capping, and the Fmoc group elimination described above to elongate the amino terminus for peptide synthesis.
The peptides-bound cellulose disks of interest obtained above in the subsection titled “(1) Synthesis of peptide” were transferred to 96-well plates and treated with a side chain deprotection mixed solution of trifluoroacetic acid (TFA), dichloromethane, triisopropylsilane (TIPS), and water for deprotection of amino acid side chains. Then, the deprotected cellulose-bound peptides were dissolved in a mixed solution of TFA, […] acid (TFMSA), TIPS, and water and precipitated in […] methyl ether (TBME), and the precipitate was resuspended in dimethyl sulfoxide (DMSO) and mixed with a mixed solution of NaCl, sodium citrate, and water to obtain a peptide solution for slide spotting.
The peptide solution for slide spotting obtained above in the subsection titled “(2) Dissolution of amino-modified cellulose disk” was spotted onto Intavis CelluSpots™ slides using Intavis Slide Spotting Robot, and the slides were dried to prepare peptide arrays.
The presence or absence of binding, to each peptide fragment, of an IgE antibody present in the serum of a wheat-allergic patient was measured through antigen-antibody reaction using the peptide arrays. […]
As to “SEQ ID NO: 1166: common 15-residue epitope sequence of polypeptide (E17) (PGQQQQFPPQQPYPQ; REGION 1..15: note = epitope)”, the “binding of patient-specific IgE antibodies to 15-residue peptide” value (“binding” below) is reported as “confirmed to bind”.
Regarding “SEQ ID NO: 2419: common 15-residue epitope sequence of polypeptide (E41) (QSTLKAWSGKTENEE; REGION 1..15: note = epitope)”, the “binding” value is “confirmed to bind”.
Then “SEQ ID NO: 2342: common 15-residue epitope sequence of polypeptide (E40) (HDIDRCAYVTEIVLA; REGION 1..15: note = epitope)”, with “confirmed to bind”; and “SEQ ID NO: 2613: common 15-residue epitope sequence of polypeptide (E44) (SAKPLLASLSKRVLT; REGION 1..15: note = epitope)”, with “confirmed to bind”.
In the case of “SEQ ID NO: 2545: common 15-residue epitope sequence of polypeptide (E43) (LQQSTYQLVQQLCCQ; REGION 1..15: note = epitope)” it was “confirmed to bind”; in that of “SEQ ID NO: 706: common 15-residue epitope sequence of polypeptide (E10) (VILFEETLYQSTKGG; REGION 1..15: note = epitope)”, “confirmed to bind”.
Then “SEQ ID NO: 346: common 15-residue epitope sequence of polypeptide (E5) (PQQSFPQQQRPFIQP; REGION 1..15: note = epitope)”, with “confirmed to bind”; and “SEQ ID NO: 899: common 15-residue epitope sequence of polypeptide (E12) (LGQQQQQFPGQQQPF; REGION 1..15: note = epitope)”, with “confirmed to bind”.
Regarding “SEQ ID NO: 640: common 15-residue epitope sequence of polypeptide (E9) (QVPLVQQQQFPGQQQ; REGION 1..15: note = epitope)”, the “binding” value was “confirmed to bind”.
Then “SEQ ID NO: 1836: common 15-residue epitope sequence of polypeptide (E30) (VIAEYTVRTLQRTVP; REGION 1..15: note = epitope)”, with “confirmed to bind”; and “SEQ ID NO: 1209: common 15-residue epitope sequence of polypeptide (E18) (PIQQQPQPFPQQPPC; REGION 1..15: note = epitope)”, with “confirmed to bind”.
Then “SEQ ID NO: 2068: common 15-residue epitope sequence of polypeptide (E35) (PPYCTIAPFGIFGTN; REGION 1..15: note = epitope)”, with “confirmed to bind”; and “SEQ ID NO: 2154: common 15-residue epitope sequence of polypeptide (E36) (YSQPQQPISQQQQQQ; REGION 1..15: note = epitope)”, with “confirmed to bind”; and “SEQ ID NO: 2674: common 15-residue epitope sequence of polypeptide (E46) (YKGPTLLEALDQINE; REGION 1..15: note = epitope)”, with “confirmed to bind”.
In the case of “SEQ ID NO: 29: common 15-residue epitope sequence of polypeptide (E1) (QQILWYHQQQPIQQQ; REGION 1..15: note = epitope)” it was “confirmed to bind”; in that of “SEQ ID NO: 776: common 15-residue epitope sequence of polypeptide (E11) (QPYPQPQPFPSQQPY; REGION 1..15: note = epitope)”, “confirmed to bind”; in that of “SEQ ID NO: 1566: common 15-residue epitope sequence of polypeptide (E24) (PQQPQQPFPQTQQPQ; REGION 1..15: note = epitope)”, “confirmed to bind”.
“SEQ ID NO: 2265: common 15-residue epitope sequence of polypeptide (E38) (LGGIDKRVIERFEKE; REGION 1..15: note = epitope)”: the “binding” value is given as “confirmed to bind”.
Then “SEQ ID NO: 493: common 15-residue epitope sequence of polypeptide (E7) (PQQPYPQQQPQYLQP; REGION 1..15: note = epitope)”, with “confirmed to bind”; and “SEQ ID NO: 1608: common 15-residue epitope sequence of polypeptide (E26) (VGYNPDKVPFVPISG; REGION 1..15: note = epitope)”, with “confirmed to bind”.
Then “SEQ ID NO: 2701: common 15-residue epitope sequence of polypeptide (E47) (VYKIGGIGTVPVGRV; REGION 1..15: note = epitope)”, with “confirmed to bind”.
In the case of “SEQ ID NO: 2631: common 15-residue epitope sequence of polypeptide (E45) (RFEKEAAEMNKRSFK; REGION 1..15: note = epitope)” it was “confirmed to bind”.
As for “SEQ ID NO: 974: common 15-residue epitope sequence of polypeptide (E13) (QPFPQQQQPIIILQQ; REGION 1..15: note = epitope)”, the “binding” value is reported as “confirmed to bind”.
Then “SEQ ID NO: 1297: common 15-residue epitope sequence of polypeptide (E20) (SINVENVEDNRRALR; REGION 1..15: note = epitope)”, with “confirmed to bind”; and “SEQ ID NO: 2491: common 15-residue epitope sequence of polypeptide (E42) (SSQVSFQPSQLNPQA; REGION 1..15: note = epitope)”, with “confirmed to bind”; and “SEQ ID NO: 1367: common 15-residue epitope sequence of polypeptide (E21) (KPWQQQPLPPQQQPP; REGION 1..15: note = epitope)”, with “confirmed to bind”.
In the case of “SEQ ID NO: 2217: common 15-residue epitope sequence of polypeptide (E37) (VSRLLRGIRNYRVAI; REGION 1..15: note = epitope)”, the “binding” value was “confirmed to bind”.
Then “SEQ ID NO: 414: common 15-residue epitope sequence of polypeptide (E6) (KWRAVLKIGATEPSQ; REGION 1..15: note = epitope)”, with “confirmed to bind”; and “SEQ ID NO: 1977: common 15-residue epitope sequence of polypeptide (E32) (DPTGAKVTKAAIKKK; REGION 1..15: note = epitope)”, with “confirmed to bind”; and “SEQ ID NO: 1789: common 15-residue epitope sequence of polypeptide (E29) (SGKELEALPKFLKNG; REGION 1..15: note = epitope)”, with “confirmed to bind”.
Then “SEQ ID NO: 1089: common 15-residue epitope sequence of polypeptide (E15) (STKGGKPFVDILKAG; REGION 1..15: note = epitope)”, with “confirmed to bind”; and “SEQ ID NO: 1598: common 15-residue epitope sequence of polypeptide (E25) (PQQPAQLEAIRSLVL; REGION 1..15: note = epitope)”, with “confirmed to bind”; and “SEQ ID NO: 281: common 15-residue epitope sequence of polypeptide (E4) (QQPQQPFPQQQQPLI; REGION 1..15: note = epitope)”, with “confirmed to bind”.
